Measurements published in patent US12180228B2 (priority 2019, dated 2024).

What was measured:
[1] = test system: A549 (alveolar adenocarcinoma); conditions: for IC50: read-out: Cytotoxicity IC50, A549, 72 h of compound treatment, Cell Titer-Glo (ATP levels), error is standard deviation of the mean, n ≥ 2
Experimental: (§1) Cells were grown in media supplemented with fetal bovine serum (FBS) and antibiotics (100 μg/mL penicillin and 100 U/mL streptomycin).
(§2) Cells were plated at 250 cells/well into duplicate assay plates in 50 μL media into 384-well white, opaque, tissue-culture treated plates and allowed to adhere overnight at 37° C./5% CO2. Compounds were solubilized in DMSO as 1000× stocks and […] was pin-transferred to cells (V&P pin tool mounted on Tecan Freedom Evo MCA96). Compounds were tested in 10-pt, 2-fold dilution with concentrations tested between 1 nM-20 μM for most compounds, except where indicated. DMSO (32 wells of 384-wells) was used as vehicle control. After 72 hours of incubation at 37° C./5% CO2, 10 μL Cell Titer-Glo (Promega) was added to each well and plates were incubated at room temperature for 10 minutes before the luminescence was read on a Tecan M1000 plate reader. Cell Titer-Glo measures ATP levels of cells as a surrogate for cell viability. All compound-treated wells was normalized to the DMSO control averages and expressed as a % of DMSO viability. IC50 values were determined from the dose curves using Spotfire (Perkin Elmer).

[2] = test system: DU-145 (prostate carcinoma); conditions: for IC50: read-out: Cytotoxicity IC50, DU-145, 72 h of compound treatment, Cell Titer-Glo (ATP levels), error is standard deviation of the mean, n ≥ 2
Experimental: as §1, §2

[3] = test system: HeLa (cervical carcinoma); conditions: for IC50: read-out: Cytotoxicity IC50, HeLa, 72 h of compound treatment, Cell Titer-Glo (ATP levels), error is standard deviation of the mean, n ≥ 2
Experimental: as §1, §2

[4] = test system: Jurkat cell lines (acute T cell leukemia); test: cells; format: cell-based; conditions: Homo sapiens, 72 hours, CellTiter-Glo
Experimental: (§3) Cells were grown in RPMI-1640+10% FBS+Pen/Strep and all are suspension cell lines. Each were plated at 250 cells per well in 50 μL of media in a 384 well plate and 50 nL of compounds was added via pin-tool (same as our usual procedure). Compounds were tested at 20 μM starting assay concentration in 20-pt, 2-fold dose in duplicate on the same assay plate. Cells were incubated with compound for 72 hours and viability was read out with CellTiter-Glo.

[5] = test system: Toledo cell lines (diffuse large cell lymphoma; non-Hodgkin's B cell lymphoma); test: cells; format: cell-based; conditions: Homo sapiens, 72 hours, CellTiter-Glo
Experimental: as §3

[6] = test system: K-562 cell lines (chronic myelogenous leukemia (CML)); test: cells; format: cell-based; conditions: Homo sapiens, K562; 72 hours, CellTiter-Glo
Experimental: as §3

[7] = Chemical stability of epidisulfides, in situ 1H NMR monitoring; format: physicochemical; conditions: triethylamine, 16 hours in deuteroacetonitrile
Experimental: In the absence of base, 98% of epidisulfide (+)-8 remained after 20 hours in deuterochloroform.
Monitoring in situ by ^1H NMR spectroscopy, 99% remaining starting material in the presence of triethylamine after 16 hours in deuteroacetonitrile was observed.

[8] = test system: five human cancer cell lines (HeLa, A549, MCF7, HCT116, DU-145); conditions: for cytotoxic activity relative to parent ETP (in words): same five cell lines
Experimental: Cells were grown in media supplemented with fetal bovine serum (FBS) and antibiotics (100 μg/mL penicillin and 100 U/mL streptomycin). Specifically, experiments were performed using the following cell lines and media compositions: HeLa (cervical adenocarcimona) and A549 (lung carcinoma) were grown in RPMI-1640+10% FBS; HCT-116 (colorectal carcinoma) was grown in DMEM+10% FBS; DU-145 (prostate carcinoma) and MCF7 (breast adenocarcinoma) were grown in EMEM+10% FBS. Cells were incubated at 37° C. in a 5% CO2, 95% humidity atmosphere.
as §2
To evaluate the model and functionalized ETP probes as anticancer agents, fifteen derivatives were tested in culture against a panel of five human cancer cell lines (Table 1).

[9] = test system: MCF7 (breast adenocarcinoma); conditions: read-out: Cytotoxicity IC50, MCF7; 72 h of compound treatment, Cell Titer-Glo (ATP levels); error is standard deviation of the mean, n ≥ 2
Experimental: as §1, §2

[10] = test system: HCT116 (colorectal carcinoma); conditions: read-out: Cytotoxicity IC50, HCT116; 72 h of compound treatment, Cell Titer-Glo (ATP levels); error is standard deviation of the mean, n ≥ 2
Experimental: as §1, §2

[11] = D2O and CD3CN, addition of glutathione; minutes with base or days without
Experimental: The first study involved thiol-disulfide exchange of ETPs in organic solvents using a surrogate thiol, and then transitioned to more biologically informative aqueous conditions involving glutathione (Scheme 9).
To investigate this, aliquots of the reaction were diluted starting with epidisulfide (+)-42 (“from ETP”) in CDCl3 to analyze the composition versus an internal standard over a period of 100 h.

CN1C(=O)[C@@]23C[C@]4(c5ccc(OCCCN=[N+]=[N-])cc5)c5ccccc5N(S(=O)(=O)c5ccccc5)[C@@H]4N2C(=O)[C@]1(C)SS3 [(+)-9d, Epidithiodiketopiperazine Azide]
fold decrease in activity compared to model ETP (+)-42, A549 [1]: 2.7 fold | fold decrease in activity compared to model ETP (+)-42, DU-145 [2]: 8.6 fold | fold decrease in activity compared to model ETP (+)-42, HeLa [3]: 4.3 fold | IC50 [4]: 419 nM | IC50 [5]: 1810 nM | IC50 [6]: 1280 nM

COc1ccc([C@]23C[C@@]45SS[C@@](C)(C(=O)N4[C@H]2N(S(=O)(=O)c2ccccc2)c2ccccc23)N(C)C5=O)cc1 [(+)-42, Epidithiodiketopiperazine]
remaining starting material [7]: 99% | IC50 ([8]; read-out: activity (IC50 range) against the five cell lines, range over HeLa, A549, MCF7, HCT116, DU-145): 32 to 374 nM | IC50 [9]: 81 ± 64 nM | IC50 [1]: 92 ± 87 nM | IC50 [10]: 374 ± 83 nM | IC50 [2]: 36 ± 43 nM | IC50 [3]: 32 ± 37 nM

COc1ccc([C@]23C[C@]4(SSCc5ccc(F)cc5)C(=O)N(C)[C@@](C)(SSCc5ccc(F)cc5)C(=O)N4[C@H]2N(S(=O)(=O)c2ccccc2)c2ccccc23)cc1 [(+)-45b]
cytotoxic activity relative to parent ETP (in words) [8]: approximately the same activities

COc1ccc([C@]23C[C@]4(SSCc5ccc(F)cc5)C(=O)N(C)[C@@H](SSCc5ccc(F)cc5)C(=O)N4[C@H]2N(S(=O)(=O)c2ccccc2)c2ccccc23)cc1 [(−)-45a]
cytotoxic activity relative to parent ETP (in words) [8]: approximately the same activities

COc1ccc([C@]23C[C@]4(SSC[C@H](NC(=O)CC[C@H](N)C(=O)O)C(=O)NCC(=O)O)C(=O)N(C)[C@@](C)(SSC[C@H](NC(=O)CC[C@H](N)C(=O)O)C(=O)NCC(=O)O)C(=O)N4[C@H]2N(S(=O)(=O)c2ccccc2)c2ccccc23)cc1 [Compound 46, Bis(L-glutathione)disulfide]
cytotoxic activity relative to parent ETP (in words) [8]: significantly less active | IC50 [9]: 500 ± 152 nM | IC50 [1]: 910 ± 324 nM | IC50 [10]: 1100 ± 540 nM | IC50 [2]: 580 ± 216 nM | IC50 [3]: 508 ± 75 nM | reversion of bisdisulfide to ETP (+)-42 (in words) [11]: quantitative reversion
